{"source": "patent US20040220198A1", "about": "“Methods for treating malaria by modulation of G protein function” (priority 2002, published 2004)", "key": {"[1]": {"test_system": "P. falciparum (strain 3D7)", "test": "In vitro erythrocytic infection assay with Gs receptor agonists/antagonists, new ring stage infection after 4-6 h", "type": "cell-based, Plasmodium falciparum", "settings": "for blocking the stimulation of infection by P. falciparum in vitro: 10 μM isoproterenol or antagonist, 4-6 hours, FIG. 10", "protocol": "Effects of β-adrenergic receptor agonist (isoproterenol) or antagonist (propranolol) on erythrocyte infection by P. falciparum. Cultures containing 2×10^8 red cells and 2.5×10^6 synchronized segmenters were incubated in 1 ml of 10% medium (10% human serum with RPMI) with the indicated agonist, antagonist, agonist+antagonist, or mock treated (solvent alone: 1 μl) for 6 h.\nEffects of adenosine receptor agonist (NECA) and antagonist (8-SPT) on infection of erythrocytes by P. falciparum. Cultures were set up as described in FIG. 5, indicated concentrations of NECA, 8-SPT, both or solvent alone were added and infection was scored after 6 h as described.\nEffects of (β-adrenergic and adenosine receptor) agonists and antagonists singly and in combination on in vitro erythrocytic infection by P. falciparum. In vitro infection assays were done with synchronized cultures of P. falciparum (strain 3D7) using standard culture conditions (K. Haldar, M. A. J. Ferguson, G. A. M. Cross, J Biol Chem 260, 4969 (1985)). A starting parasitemia of 2.5% schizonts (44-48 h in development) in 20 μl of red blood cells with 1 ml of 10% human serum in RPMI1640 was used. The cultures were incubated for 4-6 hours in the presence of Gαs protein receptor agonist or antagonist, or vehicle control. All detectable schizonts ruptured, and new ring stage infection was scored by Giemsa staining of thin blood smears.\nIn vitro effect of various β-adrenergic antagonists on inhibition of P. falciparum infection in red blood cells treated with isoproterenol. In vitro infection assays were done with synchronized cultures of P. falciparum (strain 3D7) using standard culture conditions (K. Haldar, M. A. J. Ferguson, G. A. M. Cross, J Biol Chem 260, 4969 (1985)). A starting parasitemia of 2.5% schizonts (44-48 h in development) in 20 μl of red blood cells with 1 ml of 10% human serum in RPMI1640 was used. The cultures were incubated for 4-6 hours in the presence of 10 μM beta-adrenergic receptor agonists or antagonists, or vehicle control. All detectable schizonts ruptured, and new ring stage infection was scored by Giemsa staining of thin blood smears.\nIn vitro infection assays were done with synchronized cultures of P. falciparum (strain 3D7) using standard culture conditions. A starting parasitemia of 2.5% schizonts (44-48 h in development) in 20 μl of red blood cells with 1 ml of 10% human serum in RPMI1640 was used. The cultures were incubated for 4-6 hours in the presence of 10 μM isoproterenol or antagonist, or vehicle control. All detectable schizonts ruptured, and new ring stage infection was scored by Giemsa staining of thin blood smears."}, "P. berghei": {"test_system": "P. berghei", "test": "Standard 4 day Peters assay, P. berghei in mice, drug intraperitoneally", "type": "in vivo", "settings": "for inhibition of parasitemia / P. berghei infection in vivo: mice, day 4 parasitemia", "description": "(§1) FIG. 11. […] In vivo mouse experiments were done with P. berghei using a standard 4 day Peters assay (W. Peters, B. L. Robinson, Ann Trop Med Parasitol 78, 561 (1984)). P. berghei and the racemic form of propranolol were administered intraperitoneally; five mice were used per data point. In IC50 studies, 5 data points were taken. Mice were given 5×10^7 parasites on day 0, and indicated concentrations of drug twice a day on days 0-3. Tail bleeds were carried out on day 4 to ascertain parasitemia, after which the animals were sacrificed.\nas §1, with “12.” for “11.”, “ICI 181,551” for “the racemic form of propranolol”\n(§2) In vivo mouse experiments were done with P. berghei using a standard 4 day Peters assay (W. Peters, B. L. Robinson, Ann Trop Med Parasitol 78, 561 (1984)). P. berghei and β2-adrenergic receptor antagonists were administered intraperitoneally; five mice were used per data point. In IC50 studies, 5 data points were taken. Mice were given 5×10^7 parasites on day 0, and indicated concentrations of drug twice a day on days 0-3. Tail bleeds were carried out on day 4 to ascertain parasitemia, after which the animals were sacrificed.\nas §2, with “assay.” for “assay (W. Peters, B. L. Robinson, Ann Trop Med Parasitol 78, 561 (1984)).”, “ICI 181,551” for “β2-adrenergic receptor antagonists”\nas §2, with “assay.” for “assay (W. Peters, B. L. Robinson, Ann Trop Med Parasitol 78, 561 (1984)).”, “the indicated” for “β2-adrenergic receptor”, “point.” for “point. In IC50 studies, 5 data points were taken.”"}, "P. falciparum [2]": {"test_system": "P. falciparum", "test": "Overnight P. falciparum infection assay with C terminal G protein peptides, new ring stage infection scored by Giemsa staining", "type": "cell-based, Plasmodium falciparum", "settings": "for effect on erythrocytic infection / new ring formation (words): 500 μM peptide in culture; for % Inhibition of Infection: 500 uM peptide, overnight, compared to mock treated cultures, standard error 10%", "description": "FIG. 2. Effects of FITC-Gs peptide and its FITC-Gs-scrambled peptide on erythrocytic infection. Assays containing 500 μM of indicated peptides, their FITC-derived counterparts or solvent alone were added to a standard infection assay (see Table 1). FIG. 3. Cells taken from a standard infection assay incubated with 500 μM FITC-Gs peptide (A) or FITC-Gs scrambled peptide (B) were fixed in formaldehyde, and without permeabilization subjected to an indirect immunofluorescence assay with anti-MSP1 antibody (red, to detect extracellular parasites) and stained with DAPI (blue, to visualize nuclei). Samples were imaged by digitized fluorescence microscopy (FITC signal is green). Infection assays were set up using synchronized cultures of P. falciparum with a starting parasitemia of 6% schizonts. Cultures were incubated with 500 uM of the indicated peptides (Gs, Gs-scrambled, Gq or Gi-reversed) or mock treated (with no peptide) overnight and subsequently scored for new ring stage infection by Giemsa staining of thin blood smears. Infection is shown compared to that of mock treated cultures (containing no peptide)."}, "[3]": {"target": "host Gs coupled receptors of the red cell", "test": "cell-based or functional assay"}, "P. falciparum [4]": {"test_system": "P. falciparum", "test": "Dose dependent effect of Gs peptide on ring-infected P. falciparum cultures (development to trophozoites and next generation rings)", "type": "cell-based, Plasmodium falciparum", "settings": "for effect on parasite growth in culture / new ring formation: extracellular 100-500 μM, Tables I and II", "description": "Table II illustrates the dose dependent effect of Gs peptide on inhibition of P. falciparum infection. In this study, ring-infected cultures at 1% parasitemia were incubated with the indicated concentrations of Gs peptides under standard culture conditions and monitored for development to the subsequent trophozoite stage as well as the next generation of ring stage parasites. Parasitemias were detected by Giemsa staining of thin blood smears. Standard error: 10%."}, "P. falciparum [5]": {"test_system": "P. falciparum", "test": "Preincubation (4 h) of red cells or schizonts with Gs peptide, wash, then overnight infection assay", "type": "cell-based, Plasmodium falciparum", "settings": "500 μM, 4 h preincubation of red cells or late stage segmenters/schizonts, FIG. 1; listed as Gs peptide", "description": "FIG. 1. Effects of preincubating (for 4 h) red cells or schizonts with Gs peptide on malarial infection. Uninfected red cells or schizonts were resuspended at 2×10^8 cells/ml in RPMI1640 and incubated with 500 μM Gs peptide or mock treated for 4 h at 37° C. The cells were subsequently recovered by centrifugation and washing in peptide-free medium. Washed cells were then subjected to an overnight infection assay (using 4% schizonts to infect the culture) in the absence of peptides."}}, "note": "“Also recorded” adds a separate entry of the source. Ends that are not written are not given here."}
{"compound": "CC(C)NCC(O)COc1cccc2ccccc12", "note": "(racemic) [racemic propranolol]", "values": [{"measurement": "blocking the stimulation of infection by P. falciparum in vitro", "setting": "[1]", "result": "inhibit agonist-stimulated infection of P. falciparum in vitro"}, {"measurement": "IC90", "setting": "P. berghei; P. berghei infections in mice, twice a day days 0-3, FIG. 11", "result": 85, "unit": "mg/kg/day"}, {"measurement": "inhibition of parasitemia / P. berghei infection in vivo", "setting": "P. berghei", "result": "block P. berghei infections in mice"}]}
{"compound": "CC(C)NC[C@@H](O)COc1cccc2ccccc12", "note": "(single isomer, unassigned) [inactive isomer of propranolol]", "values": [{"measurement": "P. falciparum growth in culture", "setting": "[1]", "result": "no effect"}, {"measurement": "inhibition of parasitemia / P. berghei infection in vivo", "setting": "P. berghei", "result": "no effect"}]}
{"compound": "Cc1ccc(OCC(O)C(C)NC(C)C)c2c1CCC2", "note": "(centres unmarked) [ICI 181,551]", "values": [{"measurement": "inhibition of parasitemia / P. berghei infection in vivo", "setting": "P. berghei", "result": "effective at inhibiting parasitemia in vivo"}]}
{"compound": "CC(C)NCC(O)COc1ccc(CC(N)=O)cc1", "note": "(centres unmarked) [altenolol, 4-[2-Hydroxy-3-[(1-methylethyl)amino]-propoxy]benzeneacetamide]", "values": [{"measurement": "blocking the stimulation of infection by P. falciparum in vitro", "setting": "[1]", "result": "almost as effective as propranolol at blocking the stimulation of infection"}]}
{"compound": "COc1ccc(OC)c(C(O)C(C)NC(C)(C)C)c1", "note": "(centres unmarked) [butoxamine]", "values": [{"measurement": "blocking the stimulation of infection by P. falciparum in vitro", "setting": "[1]", "result": "lower inhibitory effect"}]}
{"compound": "ELRLQHYMQLR (SEQ ID NO:2) (synthetic scrambled G s peptide Gscb1) [Gs-scrambled]", "values": [{"measurement": "effect on erythrocytic infection / new ring formation (words)", "setting": "P. falciparum [2]", "result": "does not block infection"}, {"measurement": "effect on erythrocytic infection / new ring formation (words)", "setting": "P. falciparum [2]; listed as Gscb1", "result": "virtually no effect"}, {"measurement": "% Inhibition of Infection", "setting": "P. falciparum [2]", "result": 4, "unit": "%"}]}
{"compound": "Gαs peptide (C terminal peptide of the heterotrimeric G protein Gs)", "values": [{"measurement": "% Inhibition of Infection (P. falciparum erythrocytic infection, 500 uM peptide, overnight)", "setting": "[3]", "result": 87, "unit": "%"}, {"measurement": "Day 3 % Ring (new ring stage parasitemia) at 5 µM Gs peptide; 5.2 at 0 µM", "setting": "[3]", "result": 3.8, "unit": "%"}, {"measurement": "Day 3 % Ring (new ring stage parasitemia) at 20 µM Gs peptide; 5.2 at 0 µM", "setting": "[3]", "result": 2.7, "unit": "%"}, {"measurement": "Day 3 % Ring (new ring stage parasitemia) at 50 µM Gs peptide; 5.2 at 0 µM", "setting": "[3]", "result": 1.9, "unit": "%"}, {"measurement": "Day 3 % Ring (new ring stage parasitemia) at 100 µM Gs peptide; 5.2 at 0 µM", "setting": "[3]", "result": 1.4, "unit": "%"}, {"measurement": "Day 3 % Ring (new ring stage parasitemia) at 200 µM Gs peptide; 5.2 at 0 µM", "setting": "[3]", "result": 0.6, "unit": "%"}, {"measurement": "Day 3 % Ring (new ring stage parasitemia) at 500 µM Gs peptide; 5.2 at 0 µM", "setting": "[3]", "result": 0.4, "unit": "%"}]}
{"compound": "LQLNLKEYNLV (SEQ ID NO: 3) (synthetic C terminal peptide of Gq)", "values": [{"measurement": "effect on erythrocytic infection / new ring formation (words)", "setting": "P. falciparum [2]", "result": "little effect on plasmodial growth; also recorded: no significant effect on infection"}, {"measurement": "% Inhibition of Infection", "setting": "P. falciparum [2]", "result": 20, "unit": "%"}]}
{"compound": "NGIKCLFNDKL (SEQ ID NO:4) (synthetic reverse C terminal peptide of Gri) [Gi-reverse, reverse of C terminal peptide of Gi]", "values": [{"measurement": "effect on erythrocytic infection / new ring formation (words)", "setting": "P. falciparum [2]; listed as Gi", "result": "no significant effect on infection"}, {"measurement": "effect on erythrocytic infection / new ring formation (words)", "setting": "P. falciparum [2]; listed as Gri", "result": "little effect on plasmodial growth"}, {"measurement": "% Inhibition of Infection", "setting": "P. falciparum [2]", "result": 6, "unit": "%"}]}
{"compound": "QRMHLRQYELL (SEQ ID NO:1) (also: acetylated) [Gs]", "values": [{"measurement": "effect on erythrocytic infection / new ring formation (words)", "setting": "P. falciparum [2]", "result": "marked inhibition of new rings; also recorded: significantly reduced erythrocytic infection"}, {"measurement": "% Inhibition of Infection", "setting": "P. falciparum [2]", "result": 87, "unit": "%"}, {"measurement": "% Ring", "setting": "P. falciparum [4]; Day 1, 5 μM Gs Peptide", "result": 1.0, "unit": "%"}, {"measurement": "% Ring", "setting": "P. falciparum [4]; Day 1, 20 μM Gs Peptide", "result": 1.0, "unit": "%"}, {"measurement": "% Ring", "setting": "P. falciparum [4]; Day 1, 50 μM Gs Peptide", "result": 1.0, "unit": "%"}, {"measurement": "% Ring", "setting": "P. falciparum [4]; Day 1, 100 μM Gs Peptide", "result": 1.0, "unit": "%"}, {"measurement": "% Ring", "setting": "P. falciparum [4]; Day 1, 200 μM Gs Peptide", "result": 1.0, "unit": "%"}, {"measurement": "% Ring", "setting": "P. falciparum [4]; Day 1, 500 μM Gs Peptide", "result": 1.0, "unit": "%"}, {"measurement": "% Troph", "setting": "P. falciparum [4]; Day 2, 5 μM Gs Peptide", "result": 0.9, "unit": "%"}, {"measurement": "% Troph", "setting": "P. falciparum [4]; Day 2, 20 μM Gs Peptide", "result": 1.0, "unit": "%"}, {"measurement": "% Troph", "setting": "P. falciparum [4]; Day 2, 50 μM Gs Peptide", "result": 0.9, "unit": "%"}, {"measurement": "% Troph", "setting": "P. falciparum [4]; Day 2, 100 μM Gs Peptide", "result": 0.8, "unit": "%"}, {"measurement": "% Troph", "setting": "P. falciparum [4]; Day 2, 200 μM Gs Peptide", "result": 1.0, "unit": "%"}, {"measurement": "% Troph", "setting": "P. falciparum [4]; Day 2, 500 μM Gs Peptide", "result": 0.9, "unit": "%"}, {"measurement": "% Ring", "setting": "P. falciparum [4]; Day 3, 5 μM Gs Peptide", "result": 3.8, "unit": "%"}, {"measurement": "% Troph", "setting": "P. falciparum [4]; Day 3, 5 μM Gs Peptide", "result": 0.6, "unit": "%"}, {"measurement": "% Ring", "setting": "P. falciparum [4]; Day 3, 20 μM Gs Peptide", "result": 2.7, "unit": "%"}, {"measurement": "% Troph", "setting": "P. falciparum [4]; Day 3, 20 μM Gs Peptide", "result": 0.6, "unit": "%"}, {"measurement": "% Ring", "setting": "P. falciparum [4]; Day 3, 50 μM Gs Peptide", "result": 1.9, "unit": "%"}, {"measurement": "% Troph", "setting": "P. falciparum [4]; Day 3, 50 μM Gs Peptide", "result": 0.3, "unit": "%"}, {"measurement": "% Ring", "setting": "P. falciparum [4]; Day 3, 100 μM Gs Peptide", "result": 1.4, "unit": "%"}, {"measurement": "% Troph", "setting": "P. falciparum [4]; Day 3, 100 μM Gs Peptide", "result": 0.6, "unit": "%"}, {"measurement": "% Ring", "setting": "P. falciparum [4]; Day 3, 200 μM Gs Peptide", "result": 0.6, "unit": "%"}, {"measurement": "% Troph", "setting": "P. falciparum [4]; Day 3, 200 μM Gs Peptide", "result": 0.5, "unit": "%"}, {"measurement": "% Ring", "setting": "P. falciparum [4]; Day 3, 500 μM Gs Peptide", "result": 0.4, "unit": "%"}, {"measurement": "% Troph", "setting": "P. falciparum [4]; Day 3, 500 μM Gs Peptide", "result": 0.5, "unit": "%"}, {"measurement": "effect on parasite growth in culture / new ring formation", "setting": "P. falciparum [4]; listed as Gs peptide", "result": "marked effect on new ring formation"}, {"measurement": "effect on parasite growth in culture / new ring formation", "setting": "P. falciparum [4]; listed as Gαs peptide", "result": "inhibit parasite growth in culture, in a dose dependent manner"}, {"measurement": "extracellular concentrations required for significant inhibition", "setting": "P. falciparum [4]; new ring formation", "result": "> 50", "unit": "µM"}, {"measurement": "effect of preincubation with peptide on infection", "setting": "P. falciparum [5]", "result": "no detrimental effect on infection; also recorded: failed to block infection"}]}
